According to patent publication US8003119B2, “Composition for pharmaceutical or dietetic use for combating hair loss” (Giuliani S.p.A., priority 2002, dated 2011):

Legend:
Format in all cases: in vivo, man
[1] = tested on: volunteers with telogenic defluvium; experiment: Clinical study: pull test (mechanical tensile strength of the hair); conditions: oral, one capsule a day for 60 days; placebo virtually unchanged
Protocol: (§1) This controlled, randomized double-blind study was performed according to the present invention by means of the protocols below.
(§2) Sixty volunteers of both sexes and ranging between 18 and 60 years old were divided into three groups of 20 individuals each, all having the same level of pathology, i.e. telogenic defluvium existing for at least 2 months.
(§3) Some of these individuals were treated for 60 days with one capsule a day of a composition of the invention, according to the following scheme:
(§4) Group 1: 20 individuals treated with a composition of the invention containing spermidine alone (0.50 mg per capsule).
(§5) Group 2: 20 individuals treated with a composition of the invention according to Example 1 described later (spermidine 0.50 mg per capsule). […]
(§6) The parameters evaluated were the following: • A) General dermatological visit. • B) Microscopic evaluation of the shaft of the hairs (diameter and possible structural changes in the hair). • C) Trichogram, i.e. evaluation of the bulbs in the anagenic (growth) phase, catagenic (involutive stasis) phase, telogenic (pathological precocious hair loss) phase and exogenic (physiological loss of hairs since they are replaced with new hairs). • D) Haematochemical analysis. • E) Pull test (mechanical tensile strength of the hair). • F) Wash test (count of the hairs lost after washing with shampoo). • G) Possible side effects. […]

[2] = tested on: volunteers with telogenic defluvium; experiment: Clinical study: haematochemical analysis; conditions: oral, one capsule a day for 60 days
Protocol: as §1, §2, §3, §4, §5, §6

[3] = tested on: volunteers with telogenic defluvium; experiment: Clinical study: trichogram (evaluation of the hair bulbs by phase)
Protocol: as §1, §2, §3, §4
(§7) Group 2: 20 individuals treated with a composition of the invention according to Example 1 described later (spermidine 0.50 mg per capsule).
(§8) Group 3: 20 individuals treated with a placebo, in capsules.
(§9) The parameters evaluated were the following: • A) General dermatological visit. • B) Microscopic evaluation of the shaft of the hairs (diameter and possible structural changes in the hair). • C) Trichogram, i.e. evaluation of the bulbs in the anagenic (growth) phase, catagenic (involutive stasis) phase, telogenic (pathological precocious hair loss) phase and exogenic (physiological loss of hairs since they are replaced with new hairs). • D) Haematochemical analysis. • E) Pull test (mechanical tensile strength of the hair). • F) Wash test (count of the hairs lost after washing with shampoo). • G) Possible side effects.
(§10) These parameters were evaluated at time T0 (before the start of the treatment); at time T1 (at the end of the 60 days of treatment); and finally at time T2 (30 days after stopping the administration).
In this regard, reference is made to the diagrams of FIGS. 1 and 2 in the attached drawings. These show the trichogram of the anagenic and telogenic phases at times T0 (before the start of the treatment); at time T1 (at the end of the 60 days of treatment); and finally at time T2 (30 days after stopping the administration) for the individuals of the three groups, 1 (grey column), 2 (black column) and 3 (pale column). The percentage of hairs in the anagenic phase (FIG. 1) and in the telogenic phase (FIG. 2) for the treated individuals belonging to the three groups under consideration is shown on the y-axis, and the said times T are shown on the x-axis, under which are tabulated the said percentages found.

[4] = tested on: volunteers with telogenic defluvium; experiment: Clinical study: wash test (count and phase of hairs lost after shampoo)
Protocol: as §1, §2, §3, §4, §7, §8, §9, §10
This test makes it possible not only to quantify the number of hairs lost after shampooing, but also, by means of a suitable microscopic analysis, to evaluate the phase of the cycle in which the bulb was found when the hair fell out: pathological loss (telogenic) or phase of physiological exchange (exogenic).
The test results are given in the graph of FIG. 3 in the attached drawings. […]

[5] = tested on: volunteers with telogenic defluvium; experiment: Clinical study: microscopic evaluation of the hair shaft; conditions: oral, one capsule a day (spermidine 0.50 mg) for 60 days; placebo virtually unchanged
Protocol: as §1, §2, §3, §4, §5, §6

[6] = tested on: volunteers with telogenic defluvium; experiment: Clinical study: general dermatological visit; conditions: oral, one capsule a day (spermidine 0.50 mg) for 60 days; compared with placebo group 3
Protocol: as §1, §2, §3, §4, §5, §6

[7] = oral, one capsule a day for 60 days, placebo not significantly changed

## NCCCCNCCCN [spermidine, N-(3-aminopropyl)tetramethylenediamine]
[1]
  mechanical tensile strength of the hair (pull test): increased significantly
[2]
  haematochemical analyses: within the norm
[3]; T1 = end of the 60 days of treatment, relative to T0, placebo 2.7%
  increase in the anagenic phase at T1: 8.1%
[3]; T1 = end of the 60 days of treatment, placebo increased by about 1.88%
  decrease in the telogenic phase at T1: 9.1%
[3]; T2 = 30 days after stopping the 60-day administration, placebo 4.16%
  decrease in the telogenic phase at T2: 6.76%
[3]; T2 = 30 days after stopping the 60-day administration, placebo 7.79%
  increase in the anagenic phase at T2 relative to T0: 17.2%
[3]; [7]
  number of bulbs in the anagenic phase (in words): increases significantly
  telogenic phase (in words): decreases significantly
[4]; bulbs of hairs lost in the wash test, placebo more than 90%
  lost hairs in the telogenic phase (pathological loss): 63%
[4]; bulbs of hairs lost in the wash test, placebo only 3%
  lost hairs in the exogenic phase (physiological loss): 33%
[4]; oral, one capsule a day for 60 days, placebo unchanged
  number of hairs lost in the wash test: decreases significantly
[5]
  diameter of the hair shaft: increases quite substantially
[6]
  hair loss at dermatological visit: appreciable and significant reduction in the hair loss
  structure of the hair shaft at dermatological visit: improvement in the structure of the shaft
